Laboratory results: patent publication US12721816B2, “Polymer-encapsulated drug particles” (Tonic Medical, Inc., priority 2020, dated 2026)
Blank lines part the entries; values can stand above or below the compound they belong to.

What was measured:
[1] = stability under ethylene oxide sterilization, heating, and aging with paclitaxel; details: formulated with paclitaxel
[2] = BSA added; cited from earlier work
[3] = urethral stricture patients; 1 hour, 3 hours, 5 hours, 10 hours, 24 hours, and 5 days
Procedure: Clinical subjects were evaluated at 14, 30, 90, 180, 365 days, and 2 years after the index procedure. Evaluations included analysis of stricture free rate, uroflowmetry including Qmax, and PVR.

albumin = albumin (Homo sapiens, UniProt P02768); details: cited from earlier work
Chain of albumin (P02768 25-609): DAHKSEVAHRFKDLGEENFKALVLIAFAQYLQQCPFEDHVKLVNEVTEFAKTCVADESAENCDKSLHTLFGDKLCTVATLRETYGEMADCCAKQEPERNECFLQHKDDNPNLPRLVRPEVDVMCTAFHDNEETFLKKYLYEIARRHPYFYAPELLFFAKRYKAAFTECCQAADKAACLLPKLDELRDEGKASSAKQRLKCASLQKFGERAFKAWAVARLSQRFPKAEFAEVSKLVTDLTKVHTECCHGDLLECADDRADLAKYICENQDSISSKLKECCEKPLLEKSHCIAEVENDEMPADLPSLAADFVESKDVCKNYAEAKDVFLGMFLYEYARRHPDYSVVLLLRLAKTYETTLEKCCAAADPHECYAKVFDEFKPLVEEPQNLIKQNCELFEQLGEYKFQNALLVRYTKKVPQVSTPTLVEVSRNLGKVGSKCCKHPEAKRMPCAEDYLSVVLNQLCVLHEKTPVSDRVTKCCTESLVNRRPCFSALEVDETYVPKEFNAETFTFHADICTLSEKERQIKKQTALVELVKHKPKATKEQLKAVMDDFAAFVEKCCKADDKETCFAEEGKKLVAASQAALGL

Compound: O=C(O)c1ccccc1 [benzoic acid]
stability under ethylene oxide sterilization, heating, and aging process [1]: not stable

Human plasma paclitaxel concentration on average [3]: below the level of quantification
Compound: CC(=O)O[C@H]1C(=O)[C@@]2(C)[C@H]([C@H](OC(=O)c3ccccc3)[C@]3(O)C[C@H](OC(=O)[C@H](O)[C@@H](NC(=O)c4ccccc4)c4ccccc4)C(C)=C1C3(C)C)[C@]1(OC(C)=O)CO[C@@H]1C[C@@H]2O [paclitaxel]
solubility increase in PBS with the addition of BSA [2]: over 20 fold

Compound: CO[C@H]1C[C@@H]2CC[C@@H](C)[C@@](O)(O2)C(=O)C(=O)N2CCCC[C@H]2C(=O)O[C@H]([C@H](C)C[C@@H]2CC[C@@H](O)[C@H](OC)C2)CC(=O)[C@H](C)/C=C(\C)[C@@H](O)[C@@H](OC)C(=O)[C@H](C)C[C@H](C)/C=C/C=C/C=C/1C [sirolimus]
share of protein binding to albumin (albumin; bound primarily to albumin): 97%
protein bound (albumin): 92%
